Results published in PMC9276671, “A first-in-human Phase I dose-escalation trial of the novel therapeutic peptide, ALM201, demonstrates a favourable safety profile in unselected patients with ovarian cancer and other advanced solid tumours” (British Journal of Cancer, 2022).
Where two headings read alike, the source gives them in different places. No end group written: not given here.

Experiments:
heparinised human blood = conditions: alone or with Staphylococcus Enterotoxin B, 10^-8 to 10^-6 M, ref Investigator brochure (IB); cited from earlier work
[1] = tested on: HMEC-1, a human vascular endothelial cell-line; conditions: protocol Table 3; ref Investigator brochure (IB); read-out: Wound scrape IC50; cited from earlier work
From the text: page 37: Almac Discovery Confidential There are five main histological subtypes of ovarian cancer differing in tissue of origin, stage of presentation, sensitivity to chemotherapy, survival and driver genetic mutations. The most aggressive of these subtypes are the high grade serous tumours. […] ALM201 also had no effect on cytok ...

[2] = Safety and tolerability: adverse events and DLT (CTCAE v4.03); assay type: in vivo
Experimental: Eligible participants were enrolled in sequential cohorts treated with a subcutaneous (SC) injection of ALM201, with close monitoring for safety and dose-limiting toxicities (DLTs). Dose levels were not weight-adjusted, and the starting dose for the study was 10 mg ALM201 given on days 1–5, 8–12 and 15–19 every 21 days, i.e., weekday dosing to be given continuously. […] Every new dose cohort was evaluated for the occurrence of a DLT during treatment cycle 1.
This study commenced with an accelerated dose-escalation design, then switched to a conventional algorithm (3 + 3 patients per dose level) to identify the maximum tolerated dose (MTD), escalating on observation of 0/3 or 1/6 DLTs, and de-escalating if two or more patients with DLTs were encountered.
Safety assessments included physical examination, vital signs, biochemistry and haematology laboratory screens, plus immunogenicity testing. Safety evaluations were conducted weekly during each treatment cycle, with DLT assessed during cycle one only. All events and suspected DLTs were graded according to the Common Toxicity Criteria for Adverse Events (CTCAE), version 4.03.

[3] = Mouse, 3mg/kg SC, male animals; ref Investigator brochure (IB); cited from earlier work
[4] = tested on: invasion stimulated by VEGF, EGF, FGF, PFGF and FCS; conditions: 10^-9 M (exponent printed displaced), ref Investigator brochure (IB); cited from earlier work
From the text: (§1) ALM201 also had no effect on cytok ...

cell viability = conditions: protocol Table 2; ref Investigator brochure (IB); cited from earlier work
From the text: as §1

rat aorta = conditions: ex vivo rat aorta in Matrigel, 7-day period, depending on the parameter assessed; ref Investigator brochure (IB); read-out: IC50 for tubule out-growth parameters; cited from earlier work
From the text: as §1

proliferation = conditions: protocol Table 3; ref Investigator brochure (IB); cited from earlier work
From the text: as §1

cell cycle = conditions: protocol Table 2 (IC50 (nM)); ref Investigator brochure (IB); cited from earlier work
From the text: as §1

HMEC-1 = conditions: protocol Table 3; ref Investigator brochure (IB); read-out: Tube formation IC50; cited from earlier work
From the text: as §1

HMEC-1 cells = conditions: same concentration range, range of growth factors, ref Investigator brochure (IB); cited from earlier work
From the text: as §1

[5] = Rat, 5mg/kg SC, male animals; ref Investigator brochure (IB); cited from earlier work
[6] = ref Investigator brochure (IB), cited from earlier work
Experimental: page 40: Almac Discovery Confidential (i) a […] dose ranging study in rats, dose range 5-50 mg/kg/day; (ii) a non-GLP dose ranging study in dogs, dose range 15-50 mg/kg/day; (iii) a GLP 28-day study in rats, dose range 5-50 mg/kg/day; (iv) a GLP 28-day study in dogs, dose range 5-50 mg/kg/day; (v) a non-GLP wound healing study in rats, dose range 5-50 mg/kg/day. In the rat dose range finding study, administration of doses of up to 50 mg/kg/day for 14 days were assessed. ALM201 was well tolerated at all doses and the No Observable Adverse Effect Level (NOAEL) was considered to be 50 mg/kg/d ...

[7] = Dog, 5mg/kg SC, male animals; ref Investigator brochure (IB); cited from earlier work
[8] = tested on: DU145 and HT29 xenografts; conditions: 3.0 mg/kg/day and 0.3 mg/kg/day, 14-day period, BALB-c SCID mouse, ref Investigator brochure (IB); cited from earlier work
Experimental: In vivo studies using a BALB-c SCID mouse xenograft model with DU145 and HT29 cell-lines, where the small tumours can be directly examined in situ using confocal and standard microscopy have shown that administration of ALM201 inhibits a range of markers of new blood vessel formation. Tumours were typically 1-2 mm at baseline and assessments taken over a 14-day period. Dose levels of 3.0 mg/kg/d ...

[9] = Urinary excretion of unchanged ALM201 (LC-MS/MS); assay type: in vivo; conditions: human, sc, patients with positive urine concentrations, urine collected over 6 h after dosing, day 1 cycle 1, read-out: Amount excreted in the urine, % of the administered dose, mean (±SD)

IRQQPRDPPTETLELEVSPDPAS [ALM201]
Effect on cytokine release and T-cell proliferation (heparinised human blood): no effect
IC50 [1]: 0.009 nM
Maximum tolerated dose (MTD) ([2]; SC weekday doses of up to 300 mg): not reached
CTCAE grade 4-related toxicities ([2]; all dose levels): no CTCAE grade 4-related toxicities
Thrombotic events, number of patients ([2]; cohort 8 (100 mg) and cohort 1 (10 mg)): two
Dose-limiting toxicities (DLTs) ([2]; cycle 1, 10-300 mg SC): No DLTs
Abdominal wall bruising, causality ([2]; in vivo): Definite
Anorexia, causality ([2]; in vivo): Possible
Arthralgia, causality ([2]; in vivo): Possible
Blurred vision, causality ([2]; in vivo): Probable
Depression, causality ([2]; in vivo): Possible
Diarrhoea, causality ([2]; in vivo): Possible
Fatigue, causality ([2]; in vivo): Possible
Headache, causality ([2]; in vivo): Possible
Hot flushes, causality ([2]; in vivo): Possible
Injection-site erythema, causality ([2]; in vivo): Definite
Injection-site immune reaction, causality ([2]; in vivo): Definite
Injection-site pain, causality ([2]; in vivo): Definite
Nausea, causality ([2]; in vivo): Possible
Oral candidiasis, causality ([2]; in vivo): Possible
Pedal oedema, causality ([2]; in vivo): Possible
Pruritus, causality ([2]; in vivo): Definite
Pulmonary embolus, causality ([2]; in vivo): Possible
Pyrexia, causality ([2]; in vivo): Possible
Urinary tract infection, causality ([2]; in vivo): Possible
Venous thrombus, causality ([2]; in vivo): Possible
Vomiting, causality ([2]; in vivo): Possible
AUC24 (figure is for AUC0-∞) [3]: 2166 ng·h/mL
Cmax [3]: 3477 ng/mL
Half-life [3]: 12 min
Tmax [3]: 10 min
Invasion [4]: inhibit invasion
Cell viability IC50 (cell viability): No effect
IC50 (rat aorta): 0.005 to 0.02 nM
Proliferation IC50 (proliferation): No effect
Cell cycle arrest (cell cycle): No effect
IC50 (HMEC-1): 0.082 nM
Effect on cell proliferation or cell cycle (HMEC-1 cells): no effect
AUC24 [5]: 4320 ng·h/mL
Cmax [5]: 3400 ng/mL
Half-life [5]: 36 min
Tmax [5]: 30 min
NOAEL ([6]; beagle dog dose range finding, 15 and 50 mg/kg/day for 14 days): 50 mg/kg/day
NOAEL ([6]; dog GLP 28 days plus recovery, 5, 15 and 50 mg/kg/day): 50 mg/kg/day
NOAEL ([6]; rat GLP 28 days plus recovery, 5, 15 and 50 mg/kg/day): 50 mg/kg/day
NOAEL ([6]; rat dose range finding study, up to 50 mg/kg/day for 14 days): 50 mg/kg/day
Effect on wound closure or tensile strength ([6]; rat, 5 and 50 mg/kg/day for up to 18 days, versus vehicle controls): No effect
AUC24 [7]: 7300 ng·h/mL
Cmax [7]: 2030 ng/mL
Half-life [7]: 144 min
Tmax [7]: 60 min
Average vessel diameter, average segment length and vessel branch number [8]: significant decreases
dose excreted [9]: 0.074%
